In brackets after ≈: the same amount, converted by molar mass. Activity calls are given as the source filed them. The calls are words filed in the database; no cut-off is given here.
tested on: Streptococcus pyogenes; test: Antibacterial activity against Streptococcus pyogenes ATCC 12344 after 18 hrs by two-fold microbroth dilution method; format: functional; conditions: ATCC 12344, 18 h

| Compound | MIC |
| --- | --- |
| N[C@@]12CCCC[C@@H]1CNC2 | 0.1 µg/mL (≈ 0.713 µM) |
| N[C@@]12CCC[C@@H]1CNC2 | 0.025 µg/mL (≈ 0.198 µM) |

tested on: not listed separately; test: AUC (0 to 8 hrs) in Crj:CD rat at 5 mg/kg, po; format: ADME, organism-based; parameters: time < 8 hr, dose 5 mg/kg, route oral; conditions: in vivo

| Compound | AUC(0-t) at 8 h |
| --- | --- |
| N[C@@]12CCC[C@@H]1CNC2 | 210 ng·h/mL |

tested on: Staphylococcus aureus; test: Antibacterial activity against methicillin-resistant Staphylococcus aureus after 18 hrs by two-fold microbroth dilution method; format: functional; conditions: not given

| Compound | MIC |
| --- | --- |
| C[C@H]1NCc2cc(-c3ccc4c(=O)c(C(=O)O)cn(C5CC5)c4c3OC(F)F)ccc21 [GARENOXACIN] | 0.008 to 8 µg/mL |

same assay, conditions: Staphylococcus aureus, 18 h

| Compound | MIC50 | MIC90 |
| --- | --- | --- |
| C[C@H]1NCc2cc(-c3ccc4c(=O)c(C(=O)O)cn(C5CC5)c4c3OC(F)F)ccc21 [GARENOXACIN] | 0.03 µg/mL (≈ 0.0704 µM) | 1 µg/mL (≈ 2.35 µM) |

tested on: not listed separately; test: AUC (0 to 24 hrs) in cynomolgus monkey serum at 5 mg/kg, po; format: ADME, organism-based, Macaca fascicularis; parameters: time < 24 hr, dose 5 mg/kg, route oral; conditions: not given

| Compound | AUC(0-t) at 24 h |
| --- | --- |
| COc1c(N2C[C@@H]3CCOC[C@@]3(N)C2)c(F)cc2c(=O)c(C(=O)O)cn([C@@H]3C[C@@H]3F)c12.CS(=O)(=O)O | 19800 ng·h/mL |
| COc1c(N2C[C@@H]3CCCN[C@@H]3C2)c(F)cc2c(=O)c(C(=O)O)cn(C3CC3)c12.Cl.O [MOXIFLOXACIN HYDROCHLORIDE HYDRATE] | 6630 ng·h/mL |

tested on: not listed separately; test: Cmax in Crj:CD rat at 5 mg/kg, po; format: ADME, organism-based; parameters: dose 5 mg/kg, route oral; conditions: in vivo

| Compound | Cmax |
| --- | --- |
| N[C@@]12CCC[C@@H]1CNC2 | 49 ng/mL |

tested on: Staphylococcus aureus; test: Antibacterial activity against levofloxacin and methicillin-resistant Staphylococcus aureus 890325-1 after 18 hrs by two-fold microbroth dilution method; format: functional; conditions: 890325-1, 18 h

| Compound | MIC |
| --- | --- |
| N[C@@]12CCCC[C@@H]1CNC2 | 1.56 µg/mL (≈ 11.1 µM) |
| N[C@@]12CCC[C@@H]1CNC2 | 0.78 µg/mL (≈ 6.18 µM) |

tested on: Streptococcus pneumoniae; test: Antibacterial activity against penicillin-susceptible Streptococcus pneumoniae J24 after 18 hrs by two-fold microbroth dilution method; format: functional; conditions: J24, 18 h

| Compound | MIC |
| --- | --- |
| N[C@@]12CCCC[C@@H]1CNC2 | 0.05 µg/mL (≈ 0.357 µM) |
| N[C@@]12CCC[C@@H]1CNC2 | 0.05 µg/mL (≈ 0.396 µM) |

tested on: Haemophilus influenzae; test: Antibacterial activity against Haemophilus influenzae ATCC 49247 after 18 hrs by two-fold microbroth dilution method; format: functional; conditions: ATCC 49247, 18 h

| Compound | MIC |
| --- | --- |
| N[C@@]12CCCC[C@@H]1CNC2 | 0.025 µg/mL (≈ 0.178 µM) |
| N[C@@]12CCC[C@@H]1CNC2 | 0.006 µg/mL (≈ 0.0475 µM) |

tested on: Pseudomonas aeruginosa; test: Antibacterial activity against Pseudomonas aeruginosa PAO1 after 18 hrs by two-fold microbroth dilution method; format: functional; conditions: PAO1, 18 h

| Compound | MIC |
| --- | --- |
| N[C@@]12CCCC[C@@H]1CNC2 | 1.56 µg/mL (≈ 11.1 µM) |
| N[C@@]12CCC[C@@H]1CNC2 | 0.39 µg/mL (≈ 3.09 µM) |

tested on: Staphylococcus aureus; test: Antibacterial activity against Staphylococcus aureus SMITH after 18 hrs by two-fold microbroth dilution method; format: functional; conditions: not given

| Compound | MIC |
| --- | --- |
| N[C@@]12CCCC[C@@H]1CNC2 | 0.006 µg/mL (≈ 0.0428 µM) |
| N[C@@]12CCC[C@@H]1CNC2 | < 0.003 µg/mL |

tested on: not listed separately; test: Oral bioavailability in cynomolgus monkey at 5 mg/kg; format: ADME, organism-based, Macaca fascicularis; conditions: in vivo

| Compound | bioavailability |
| --- | --- |
| COc1c(N2C[C@@H]3CCOC[C@@]3(N)C2)c(F)cc2c(=O)c(C(=O)O)cn([C@@H]3C[C@@H]3F)c12.CS(=O)(=O)O | 75% |

tested on: Staphylococcus aureus; test: Antibacterial activity against levofloxacin and methicillin-resistant Staphylococcus aureus 870307 after 18 hrs by two-fold microbroth dilution method; format: functional; conditions: Staphylococcus aureus, 870307, 18 h

| Compound | MIC |
| --- | --- |
| N[C@@]12CCCC[C@@H]1CNC2 | 0.39 µg/mL (≈ 2.78 µM) |
| N[C@@]12CCC[C@@H]1CNC2 | 0.78 µg/mL (≈ 6.18 µM) |

tested on: Klebsiella pneumoniae; test: Antibacterial activity against Klebsiella pneumoniae TYPE 1 after 18 hrs by two-fold microbroth dilution method; format: functional; conditions: TYPE 1, 18 h

| Compound | MIC |
| --- | --- |
| N[C@@]12CCCC[C@@H]1CNC2 | 0.1 µg/mL (≈ 0.713 µM) |
| N[C@@]12CCC[C@@H]1CNC2 | 0.1 µg/mL (≈ 0.792 µM) |

tested on: not listed separately; test: AUC (0 to 8 hrs) in cynomolgus monkey serum at 5 mg/kg, iv; format: ADME, organism-based, Macaca fascicularis; parameters: dose 5 mg/kg, time < 8 hr, route intravenous; conditions: not given

| Compound | AUC(0-t) at 8 h |
| --- | --- |
| COc1c(N2C[C@@H]3CCCN[C@@H]3C2)c(F)cc2c(=O)c(C(=O)O)cn(C3CC3)c12.Cl.O [MOXIFLOXACIN HYDROCHLORIDE HYDRATE] | 10900 ng·h/mL |

tested on: not listed separately; test: Half life in cynomolgus monkey serum at 5 mg/kg, po; format: ADME, organism-based, Macaca fascicularis; conditions: not given

| Compound | half-life |
| --- | --- |
| COc1c(N2C[C@@H]3CCOC[C@@]3(N)C2)c(F)cc2c(=O)c(C(=O)O)cn([C@@H]3C[C@@H]3F)c12.CS(=O)(=O)O | 4.6 h |

tested on: not listed separately; test: Drug recovery in cynomolgus monkey urine at 5 mg/kg, po after 24 hrs; format: ADME, organism-based, Macaca fascicularis; conditions: read-out: Drug recovery

| Compound | dose excreted at 24 h |
| --- | --- |
| COc1c(N2C[C@@H]3CCOC[C@@]3(N)C2)c(F)cc2c(=O)c(C(=O)O)cn([C@@H]3C[C@@H]3F)c12.CS(=O)(=O)O | 64.1% |

tested on: Escherichia coli; test: Antibacterial activity against Escherichia coli 5-037042'98 harboring gyrase A Asp87Gly mutation after 18 hrs by two-fold microbroth dilution method; format: functional; conditions: 5-037042'98, 18 h

| Compound | MIC |
| --- | --- |
| N[C@@]12CCCC[C@@H]1CNC2 | 0.1 µg/mL (≈ 0.713 µM) |
| N[C@@]12CCC[C@@H]1CNC2 | 0.1 µg/mL (≈ 0.792 µM) |

tested on: Streptococcus pneumoniae; test: Antibacterial activity against penicillin-susceptible Streptococcus pneumoniae J41 after 18 hrs by two-fold microbroth dilution method; format: functional; conditions: J41, 18 h

| Compound | MIC |
| --- | --- |
| N[C@@]12CCCC[C@@H]1CNC2 | 0.05 µg/mL (≈ 0.357 µM) |
| N[C@@]12CCC[C@@H]1CNC2 | 0.1 µg/mL (≈ 0.792 µM) |

tested on: Streptococcus pneumoniae; test: (§1) In vivo antibacterial activity against quinolone-sensitive and penicillin-resistant Streptococcus pneumoniae 033806 infected in CBA/JNCrj mouse assessed as reduction in bacterial count at 40 to 80 mg/kg, sc administered twice per day starting from 1 day after infection and measured on day after final dose; format: functional, organism-based; conditions: not given

| Compound | Activity |
| --- | --- |
| COc1c(N2C[C@@H]3CCCN[C@@H]3C2)c(F)cc2c(=O)c(C(=O)O)cn(C3CC3)c12 | Active |

tested on: Enterococcus faecalis; test: Antibacterial activity against Enterococcus faecalis ATCC 19433 after 18 hrs by two-fold microbroth dilution method; format: functional; conditions: ATCC 19433, 18 h

| Compound | MIC |
| --- | --- |
| N[C@@]12CCCC[C@@H]1CNC2 | 0.2 µg/mL (≈ 1.43 µM) |
| N[C@@]12CCC[C@@H]1CNC2 | 0.1 µg/mL (≈ 0.792 µM) |

tested on: Bacillus spizizenii; test: Antibacterial activity against Bacillus subtilis ATCC 6633 after 18 hrs by two-fold microbroth dilution method; format: functional; conditions: ATCC 6633, 18 h

| Compound | MIC |
| --- | --- |
| N[C@@]12CCCC[C@@H]1CNC2 | 0.012 µg/mL (≈ 0.0856 µM) |
| N[C@@]12CCC[C@@H]1CNC2 | 0.012 µg/mL (≈ 0.0951 µM) |

tested on: not listed separately; test: Cmax in cynomolgus monkey serum at 5 mg/kg, po; format: ADME, organism-based, Macaca fascicularis; parameters: dose 5 mg/kg, route oral; conditions: not given

| Compound | Cmax |
| --- | --- |
| COc1c(N2C[C@@H]3CCOC[C@@]3(N)C2)c(F)cc2c(=O)c(C(=O)O)cn([C@@H]3C[C@@H]3F)c12.CS(=O)(=O)O | 3700 ng/mL |

tested on: Moraxella catarrhalis; test: Antibacterial activity against Moraxella catarrhalis ATCC 25238 after 18 hrs by two-fold microbroth dilution method; format: functional; conditions: ATCC 25238, 18 h

| Compound | MIC |
| --- | --- |
| N[C@@]12CCCC[C@@H]1CNC2 | 0.1 µg/mL (≈ 0.713 µM) |
| N[C@@]12CCC[C@@H]1CNC2 | 0.025 µg/mL (≈ 0.198 µM) |

tested on: Escherichia coli; test: Antibacterial activity against Escherichia coli NIHJ after 18 hrs by two-fold microbroth dilution method; format: functional; conditions: not given

| Compound | MIC |
| --- | --- |
| N[C@@]12CCCC[C@@H]1CNC2 | 0.025 µg/mL (≈ 0.178 µM) |
| N[C@@]12CCC[C@@H]1CNC2 | 0.025 µg/mL (≈ 0.198 µM) |

tested on: Streptococcus pneumoniae; test: as §1, with “at 10 to” for “at”, “40” for “40 to 80”; format: functional, organism-based; conditions: not given

| Compound | Activity |
| --- | --- |
| COc1c(N2C[C@@H]3CCOC[C@@]3(N)C2)c(F)cc2c(=O)c(C(=O)O)cn([C@@H]3C[C@@H]3F)c12 | Active |

tested on: Escherichia coli; test: Antibacterial activity against quinolone-resistant Escherichia coli DNS5101 after 18 hrs by two-fold microbroth dilution method; format: functional; conditions: DNS5101, 18 h

| Compound | MIC |
| --- | --- |
| N[C@@]12CCCC[C@@H]1CNC2 | > 6.25 µg/mL |
| N[C@@]12CCC[C@@H]1CNC2 | 6.25 µg/mL (≈ 49.5 µM) |

From ChEMBL document CHEMBL4229492, “Design, Synthesis, and Biological Evaluation of Novel 7-[(3 aS,7 aS)-3 a-Aminohexahydropyrano[3,4- c]pyrrol-2(3 H)-yl]-8-methoxyquinolines with Potent Antibacterial Activity against Respiratory Pathogens” (J Med Chem, 2018)
